Experimental findings from PMC10033409, “Autoregulation of GPCR signalling through the third intracellular loop” (Nature, 2023) are described below.

Values joined by “and” are separate entries in the source; they are usually repeats but may differ in a detail not shown here. Identical values can stand only once.

For assay [1], the target named is T1, CB1R (Mus musculus, UniProt P47746).
T1 construct: expressed in transfected cells; host or cells: transfected cells (HEK 293T for the β2AR assay)
Nature of the assay: InsP1 accumulation, CB1R. The class given is cell-based, murine. The conditions noted are these: CB1R Wild-Type; saturating agonist concentration. As for the experimental part:
(§1) One millilitre of medium was removed from each well containing transfected cells. The remaining volume was used to gently shear and resuspend the cells by pipetting. The cell mixture was centrifuged (3 min, 300g) and media was removed using a vacuum manifold. […] The cells were washed once by repeating this procedure.
(§2) For all other second messenger assays, expression level and cell density of each condition was estimated through fluorescence. […] Cells were resuspended at 350,000 ± 30,000 fluorescence counts at a wavelength representing optical density of the sample (excitation 430 nm/emission 450 nm), corresponding with 2 × 10^6 ± 5 × 10^5 cells per m^l. This was confirmed by counting the cells on a haemocytometer (Countess II). The following metrics were assessed for optimal expression: mCerulean peak emission (excitation 430 nm/475 nm):optical density emission (excitation 430 nm/emission 450 nm) of 2.0 ± 0.3 and mCitrine peak emission (excitation 490 nm/emission 525 nm):mCerulean peak emission (excitation 430 nm/emission 475 nm) of 2.0 ± 0.2.
(§3) Resuspended cells were added 1:1 with a 2× concentration of ligand (70 µl final) into an opaque 96-well U-bottom plate (Greiner Bio-One). […] Plates were incubated at 37 °C for 2 h to stimulate InsP1 production. […] FRET ratio for each reading was calculated as the ratio of acceptor emission to donor emission. […]

The target in assay [2] is T2, CB1R (Mus musculus, UniProt P47746, DEL312-328).
T2 construct: expressed in transfected cells; host or cells: transfected cells (HEK 293T for the β2AR assay)
Put plainly: InsP1 accumulation, CB1R. Format: cell-based, murine. The settings on record: CB1R ∆ICL3; saturating agonist concentration. As for the experimental part:
as §1, §2, §3

Assay [3] addresses T1, CB1R. Put plainly: cAMP accumulation, CB1R. The conditions noted are these: CB1R Wild-Type; saturating agonist concentration; 500 µM IBMX. The class given is cell-based, murine. As to the method:
(§4) One millilitre of medium was removed from each well containing transfected cells. The remaining volume was used to gently shear and resuspend the cells by pipetting. The cell mixture was centrifuged (3 min, 300g) and media was removed using a vacuum manifold. […] . The cells were washed once by repeating this procedure.
as §2
(§5) Resuspended cells were added 1:1 with a 2× concentration of ligand (10 µl final) into an opaque 384-well flat bottom plate (Greiner Bio-One). […] . for FSK inhibition assays with β-ARs, 100 µM metoprolol was used. […] Luminescence was measured on a Tecan Spark plate reader (500 ms integration, one measurement per well).

Assay [4] deals with T2, CB1R. Nature of the assay: cAMP accumulation, CB1R. Format: cell-based, murine. The settings on record: CB1R ∆ICL3; saturating agonist concentration; 500 µM IBMX. As for the experimental part:
as §4, §2, §5

In assay [5] the test system is β2AR. Put plainly: cAMP accumulation (cAMP-Glo), β2AR. The settings on record: Extended Data Figure 6B. Format: cell-based, human.
The test system of the next assay is PTH1R–Gs peptide. Nature of the assay: PTH1R-luciferase complementation reporter assay, Gs peptide. The class given is biochemical, human. The conditions noted are these: PTH1R construct named by the receptor or protein whose sequence replaces ICL3 (WT = wild-type); X axis of Figure 5G.
A further assay has as its system PTH1R–Gq peptide. Put plainly: PTH1R-luciferase complementation reporter assay, Gq peptide. Format: biochemical, human. The settings on record: PTH1R construct named by the receptor or protein whose sequence replaces ICL3 (WT = wild-type); Y axis of Figure 5G. As to the method:
For PTH1R luciferase complementation reporter assays, cells were seeded the day prior to transfection at 25-30% confluence on 12-well plates. For each transfection, 0.5 μg DNA, 1.5 μl X-tremeGENE HP, and 100 μl Opti-MEM were combined, incubated for 15-20 min, and added to seeded wells. For each mutant, PTH1R-Gs peptide, PTH1R-Gq peptide and PTH1R-(no peptide) constructs were transfected in parallel. Spep and Qpep constructs were transfected 24 h prior to collection, and no-peptide constructs were transfected 18 h before collection. […] Media in each well was used to gently shear and resuspend the cells by pipetting. The cell mixture was centrifuged (3 min, 300g) and the media was aspirated. Cell pellet was resuspended in 1 ml PBS and centrifuged again as above. […] Cellular debris was removed by centrifugation (1,000g for 1 min). To collect additional vesicles, debris was resuspended in 0.3 ml PBS, briefly vortexed, and centrifuged again (1,000g for 1 min). The ~0.9 ml of combined decanted supernatant was centrifuged one additional time (1,000g for 2 min) to better remove cellular debris. […] Vesicle samples were collected in a 96-well clear bottom plate and assayed for TagRFP fluorescence (Tecan Spark, excitation 521 nm, emission 585 nm, gain 150). For each set of constructs for a given […] ([…] control), samples were diluted to the lowest TagRFP counts. […] The plate was tapped 2-3 times to mix, and the kinetic read was resumed. Moving averages were computed for each kinetic trace (3-point averages for 5 min equilibration, 8-point moving averages post-drug treatment). Each kinetic trace was normalized to the last point of the pre-drug equilibration. The maximum luminescence value that appeared stable over time was used for further analysis. Specific Spep and Qpep signals were calculated by subtracting the control value from the Spep value and the Qpep value for a given experiment.

A further assay has as its target β2AR–mCerulean (Homo sapiens, UniProt P07550, DEL236-262). The conditions noted are these: ∆ICL3 β2AR–mCerulean; 10 µM biotinylated Gq peptide, 100 µM isoproterenol; single experiments 1-4.
Assay [6] has as its target T3, A1R (Homo sapiens, UniProt P30542).
T3 sequence (P30542 1-326): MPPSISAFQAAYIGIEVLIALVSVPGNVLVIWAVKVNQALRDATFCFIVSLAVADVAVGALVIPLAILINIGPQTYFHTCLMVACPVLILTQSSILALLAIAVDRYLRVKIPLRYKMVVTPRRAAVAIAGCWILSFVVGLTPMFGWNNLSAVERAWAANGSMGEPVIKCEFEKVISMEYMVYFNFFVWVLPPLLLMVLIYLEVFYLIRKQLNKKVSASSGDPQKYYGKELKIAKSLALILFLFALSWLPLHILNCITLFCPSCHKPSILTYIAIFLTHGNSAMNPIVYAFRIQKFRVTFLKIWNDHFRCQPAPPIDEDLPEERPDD
Put plainly: cAMP accumulation, A1R. Format: cell-based. The conditions noted are these: AA1R Wild-Type; saturating agonist concentration; 500 µM IBMX. As for the experimental part: as §4, §2, §5

Assay [7] addresses T4, A1R (Homo sapiens, UniProt P30542, DEL216-222).
T4 construct: expressed in transfected cells; host or cells: transfected cells (HEK 293T for the β2AR assay)
T4 sequence (P30542 with tags, fused parts or gaps DEL216-222): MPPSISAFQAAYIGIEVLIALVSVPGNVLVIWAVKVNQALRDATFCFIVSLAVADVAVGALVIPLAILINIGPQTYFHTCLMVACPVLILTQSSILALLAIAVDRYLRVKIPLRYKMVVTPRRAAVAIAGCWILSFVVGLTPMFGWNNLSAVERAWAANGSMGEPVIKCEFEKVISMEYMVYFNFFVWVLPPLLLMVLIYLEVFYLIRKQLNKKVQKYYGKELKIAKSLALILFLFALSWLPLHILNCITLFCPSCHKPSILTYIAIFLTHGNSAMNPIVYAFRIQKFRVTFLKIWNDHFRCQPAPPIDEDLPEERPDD
Put plainly: cAMP accumulation, A1R. The class given is cell-based. The settings on record: AA1R ∆ICL3; saturating agonist concentration; 500 µM IBMX. As for the experimental part: as §4, §2, §5

The target in assay [8] is T3, A1R. Nature of the assay: InsP1 accumulation, A1R. Format: cell-based. The settings on record: AA1R Wild-Type; saturating agonist concentration.
Source text: (§6) For all other second messenger assays, expression level and cell density of each condition was estimated through fluorescence. Fluorescence spectra for mCerulean (Horiba Fluoromax 4, excitation 430 nm, emission scan 450–600 nm, bandpass 4 nm) and mCitrine (Horiba Fluoromax 4, excitation 490 nm, emission scan 500–600 nm, bandpass 4 nm) were acquired for each condition. Cells were resuspended at 350,000 ± 30,000 fluorescence counts at a wavelength representing optical density of the sample (excitation 430 nm/emission 450 nm), corresponding with 2 × 10^6 ± 5 × 10^5 cells per m^l. […]
(§7) Resuspended cells were added 1:1 with a 2× concentration of ligand (70 µl final) into an opaque 96-well U-bottom plate (Greiner Bio-One). […] FRET ratio for each reading was calculated as the ratio of acceptor emission to donor emission. InsP1 signal for a drug and transfection combination was calculated as the average FRET ratio of a given transfection condition without drug treatment subtracted from the average FRET ratio of a of a given transfection condition with drug treatment.
In assay [9] the target is T4, A1R. Nature of the assay: InsP1 accumulation, A1R. The settings on record: AA1R ∆ICL3; saturating agonist concentration. Format: cell-based.
Source text: as §6, §7
Assay [10] has as its target β2AR (Homo sapiens, UniProt P07550). The settings on record: wild-type β2AR; presence of Gq peptide.
Procedure: (§8) Reactions were equilibrated, washed, and measured following the same procedure listed above for the radioligand antagonist-binding assay. […] Weighted averages of these IC50 values were used for comparison purposes and inhibition constant (Ki) calculations. […] Binding assays were performed in technical duplicates. Three biological replicates were collected with different membrane preparations for each replicate.
Assay [11] has as its system β2AR. The settings on record: β2AR(∆ICL3); presence of Gq peptide.
Procedure: as §8
For assay [12], the target named is β2AR ICL3 FRET sensor, β2AR(L258Azi/Y350Azi/∆351–413) (Homo sapiens, UniProt P07550, L258F/Y350F). Put plainly: Time-correlated single photon counting FRET assay, β2AR ICL3 FRET sensor (AZDye488/AZDye546).
Procedure: Cell membranes were prepared following the procedure in ‘Crude cell membrane extracts’ through the first ultracentrifugation step (135,000g, 25 min, 4 °C). […] Solution was homogenized, first by passing through a 1 ml micropipette 10 times, then passing through a 20-gauge needle 10 times. To initiate the reaction, sodium ascorbate (50 mM) was added to the mixture and mixed by pipetting (2 ml final volume). Reactions were incubated with mild shaking (500 rpm) for 30 min at 25 °C.
For conditions without drug, peptide or nanobody, an equivalent volume of assay buffer was added. Reactions were equilibrated for 5 min prior to reading. […] Time-resolved fluorescence decay data were fit to the equation: Decay=α1e^−t/τ^1+α2e^−t/τ^2+α3e^−t/τ^3
Amplitude-weighted average lifetimes (τavg) were calculated from the three-exponential decay equation: τavg=(α1τ1+α2τ2+α3τ3)/(α1+α2+α3)
Each condition was performed in technical duplicate or triplicate, depending on sensor yield.
Assay [13] deals with β2AR–Gs peptide FRET sensor (Homo sapiens, UniProt P07550, DEL236-257). Nature of the assay: ∆FRET assay, β2AR–Gs peptide SPASM FRET sensor. The settings on record: β2AR(∆ICL3)–Gs peptide sensor.
Assay [14] has as its system β2AR–Gs peptide FRET sensor. Nature of the assay: ∆FRET assay, β2AR–Gs peptide SPASM FRET sensor. The settings on record: wild-type β2AR–Gs peptide sensor.
Another assay deals with T5, β2AR L258Azi (Δ350-413) (Homo sapiens, UniProt P07550, L258F).
T5 construct: HA; mNeonGreen, TagRFP or SNAP (differs by sensor design); expressed in transfected cells; host or cells: crude membrane extracts of transfected cells (HEK293), co-transfected with pIRE4-Azi
Nature of the assay: Time-correlated single photon counting, other sensor designs and dye-only controls (mNeonGreen/Cy3, TagRFP/AZDye488, free dyes). The class given is biochemical. The conditions noted are these: Extended Data Figure 4L.

Where [15] appears, read: β2AR wild-type and ICL3 alanine mutants, replicates N 1-6, some omitted from analysis.
[16] abbreviates: Extended Data Figure 6I, replicates 1-4.

T1 sequence (P47746 whole entry): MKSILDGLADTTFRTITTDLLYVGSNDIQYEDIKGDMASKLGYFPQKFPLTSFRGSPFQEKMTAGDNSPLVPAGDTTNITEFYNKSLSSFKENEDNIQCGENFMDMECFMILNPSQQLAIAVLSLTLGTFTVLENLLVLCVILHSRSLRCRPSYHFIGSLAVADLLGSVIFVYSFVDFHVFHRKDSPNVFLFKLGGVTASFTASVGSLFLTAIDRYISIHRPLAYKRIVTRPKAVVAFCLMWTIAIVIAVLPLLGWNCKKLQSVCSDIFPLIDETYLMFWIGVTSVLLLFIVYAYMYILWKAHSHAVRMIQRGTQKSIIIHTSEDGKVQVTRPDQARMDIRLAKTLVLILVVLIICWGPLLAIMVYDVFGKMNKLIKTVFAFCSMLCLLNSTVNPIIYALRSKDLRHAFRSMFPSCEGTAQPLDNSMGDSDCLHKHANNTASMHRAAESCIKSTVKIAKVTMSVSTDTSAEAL
T2 sequence (P47746 with tags, fused parts or gaps DEL312-328): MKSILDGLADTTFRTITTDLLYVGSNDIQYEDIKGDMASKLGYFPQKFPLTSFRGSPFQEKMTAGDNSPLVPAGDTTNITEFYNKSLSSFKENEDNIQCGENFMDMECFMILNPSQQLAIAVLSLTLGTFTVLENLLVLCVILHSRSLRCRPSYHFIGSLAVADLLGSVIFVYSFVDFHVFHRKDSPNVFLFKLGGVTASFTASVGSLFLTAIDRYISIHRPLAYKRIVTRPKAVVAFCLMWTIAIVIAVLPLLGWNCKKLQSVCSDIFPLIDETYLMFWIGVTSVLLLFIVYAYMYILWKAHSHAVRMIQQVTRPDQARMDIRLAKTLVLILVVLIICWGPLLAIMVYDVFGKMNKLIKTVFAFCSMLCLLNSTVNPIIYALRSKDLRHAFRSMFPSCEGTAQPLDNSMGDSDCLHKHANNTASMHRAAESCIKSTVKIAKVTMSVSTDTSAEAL
Procedure for PTH1R–Gs peptide: For PTH1R luciferase complementation reporter assays, cells were seeded the day prior to transfection at 25–30% confluence on 12-well plates. For each transfection, 0.5 µg DNA, 1.5 µl X-tremeGENE HP, and 100 µl Opti-MEM were combined, incubated for 15–20 min, and added to seeded wells. […] Spep and Qpep constructs were transfected 24 h prior to collection, and no-peptide constructs were transfected 18 h before collection.
Expressed PTH1R-luciferase complementation constructs were vesiculated as previously described, with modifications for smaller sample volume[25]. Media in each well was used to gently shear and resuspend the cells by pipetting. The cell mixture was centrifuged (3 min, 300g) and the media was aspirated. Cell pellet was resuspended in 1 ml PBS and centrifuged again as above. Cells were resuspended again in 0.6 ml vesiculation buffer (10 mM HEPES pH 7.4, 150 mM NaCl, 20 mM CaCl2, 2 µg ml^−1 aprotinin, 2 µg ml^−1 leupeptin, 2 mM N-ethylmaleimide) and incubated at 30 °C with shaking at 180 rpm for 2 h. Cellular debris was removed by centrifugation (1,000g for 1 min). To collect additional vesicles, debris was resuspended in 0.3 ml PBS, briefly vortexed, and centrifuged again (1,000g for 1 min). The ~0.9 ml of combined decanted supernatant was centrifuged one additional time (1,000g for 2 min) to better remove cellular debris. Vesicles were collected by centrifugation (3,200g for 40 min at 4 °C) and washed in 0.5 ml assay buffer. Centrifugation step was repeated, and vesicles were resuspended in 0.1 ml assay buffer.
45 µl of each sample was transferred to an opaque 96-well flat bottom plate. 45 µl of Nano-Glo Substrate (Promega N1110) diluted 1:50 in assay buffer was added to each well in the new plate. After tapping the plate to collect liquid at the bottom of the well, a kinetic luminescence read was started (500 ms integration, continuous for 40 min) and luminescence signal was tracked. […] The plate was tapped 2–3 times to mix, and the kinetic read was resumed. Moving averages were computed for each kinetic trace (3-point averages for 5 min equilibration, 8-point moving averages post-drug treatment). Each kinetic trace was normalized to the last point of the pre-drug equilibration. The maximum luminescence value that appeared stable over time was used for further analysis. Specific Spep and Qpep signals were calculated by subtracting the control value from the Spep value and the Qpep value for a given experiment.
Procedure for β2AR L258Azi (Δ350-413): Solution was homogenized, first by passing through a 1 ml micropipette 10 times, then passing through a 20-gauge needle 10 times. To initiate the reaction, sodium ascorbate (50 mM) was added to the mixture and mixed by pipetting (2 ml final volume). Reactions were incubated with mild shaking (500 rpm) for 30 min at 25 °C. […] For conditions without drug, peptide or nanobody, an equivalent volume of assay buffer was added. Reactions were equilibrated for 5 min prior to reading.
Procedure for β2AR–mCerulean: Bio-Spep/Bio-Qpep (10 µM final) was added to the reaction mixture (300 µl final) and equilibrated on ice for 30 min. […] To the remaining 200 µl, 20 µl of 0.4 mg ml^−1 streptavidin-coated magnetic beads were added to the reaction mixture, equilibrated for 5 min at ambient temperature, and precipitated using a neodymium disc magnet N52 (20 × 40 mm). Fluorescence spectra was taken of the remaining supernatant in duplicate.

Turning to `CCCCC/C=C\C/C=C\C/C=C\C/C=C\CCCC(=O)OC(CO)CO` [2-Arachidonoylglycerol], the “IP1 (AU), Average” value on CB1R [1] is 0.14 AU; at CB1R [2] it was 0.27 AU. Besides, the “cAMP (AU), Average” value is reported as 0.05 AU at CB1R [3] and 0.16 AU at CB1R [4].

Regarding QDG-AAA, the “cAMP (Relative to Wild-Type Average)” value in the assay with β2AR [5] (Average) is 1.60; in the assay with β2AR [5] (setting [15]) it was 1.35 and 1.62 and 1.56 and 1.90 and 1.60 and 1.57.

Consider GPR27, for which, in the assay on PTH1R–Gs peptide, the “Specific Peptide Signal, Gs (Average)” value is 0.79. In the assay on PTH1R–Gq peptide, the “Specific Peptide Signal, Gq (Average)” value came out at 0.14.

For the compound “N-Biotin-DTENIRFVFAAVKDTILQLNLKEYNLV [Bio-Qpep]”, the “Specific mCerulean bound” value at β2AR–mCerulean is 0.09 and 0.14 and 0.15 and 0.12.

Take CNR2: in the assay on PTH1R–Gs peptide, the “Specific Peptide Signal, Gs (Average)” value was 0.55. For the same compound, in the assay with PTH1R–Gq peptide, the “Specific Peptide Signal, Gq (Average)” value came to 0.16.

In the case of Gamma-synuclein, the “Specific Peptide Signal, Gs (Average)” value in the assay with PTH1R–Gs peptide turned out to be 0.39.

Regarding 5HT2A, the “Specific Peptide Signal, Gs (Average)” value with PTH1R–Gs peptide is given as 0.37. The “Specific Peptide Signal, Gq (Average)” value in the assay on PTH1R–Gq peptide is on record as 0.0157.

As to Humanin, the “Specific Peptide Signal, Gs (Average)” value in the assay with PTH1R–Gs peptide is listed as 0.41.

As for HRH1, in the assay on PTH1R–Gs peptide, the “Specific Peptide Signal, Gs (Average)” value worked out at 0.66. Further, the “Specific Peptide Signal, Gq (Average)” value in the assay with PTH1R–Gq peptide is listed as -0.09.

Regarding NTS1, the “Specific Peptide Signal, Gs (Average)” value in the assay on PTH1R–Gs peptide stood at 0.48. Also, the “Specific Peptide Signal, Gq (Average)” value in the assay on PTH1R–Gq peptide was 0.14.

For the compound HVQ-AAA, the “cAMP (Relative to Wild-Type Average)” value is 1.18 in the assay with β2AR [5] (Average); 0.92 and 1.04 and 1.40 and 1.30 and 1.16 and 1.28 in the assay with β2AR [5] (setting [15]).

In the case of ADRB1, the “Specific Peptide Signal, Gs (Average)” value with PTH1R–Gs peptide was 0.47. In addition, in the assay on PTH1R–Gq peptide, the “Specific Peptide Signal, Gq (Average)” value turned out to be 0.0635.

For `OC[C@H]1O[C@@H](n2cnc3c(NC4CCCC4)ncnc32)[C@H](O)[C@@H]1O` [N^6-cyclopentyladenosine], the entries for the “cAMP (AU), Average” value at A1R [6] and on A1R [7] were -0.0258 AU and 0.0561 AU, respectively. Also, the figures for the “IP1 (AU), Average” value on A1R [8] and at A1R [9] were 0.15 AU and 0.0652 AU, respectively.

On to 5HT1D, for which the “Specific Peptide Signal, Gs (Average)” value with PTH1R–Gs peptide was 0.24. Besides, the “Specific Peptide Signal, Gq (Average)” value with PTH1R–Gq peptide is reported as -0.15.

“DTENIRFVFAAVKDTILQLNLKEYNLV [Gq peptide]”: the “effect on agonist binding affinity” value on β2AR [10] is “increased agonist binding affinity”; in the assay with β2AR [11] it was “this effect was lost”. Further, in assay [12] (setting [16]), the “Donor-only sample (tau donor) Lifetime (ns)” value is 2.34 ns and 2.38 ns and 2.28 ns and 2.27 ns. For the same compound, the “FRET sample (tau FRET) Lifetime (ns)” value in assay [12] (setting [16]) is 2.42 ns (2×) and 2.32 ns and 2.40 ns. Further, the “effect on FRET of the ICL3 FRET sensor” value is given as “increased FRET to a similar level to the agonist alone” in assay [12] (Gq peptide alone); “decreased FRET” in assay [12] (combination of agonist and Gq peptide). Further, the “effect on FRET of β2AR–Gs peptide sensor” value in [13] is reported as “did not enhance FRET”; in assay [14], “enhanced FRET”.

As for Oregon Green, at β2AR L258Azi (Δ350-413), the “Fluorescence lifetime, Labeled Receptor, individual replicates 1-3” value was 2.34 and 2.19 and 2.32. For the same compound, the “Fluorescence lifetime, Labeled Receptor, Average” value at β2AR L258Azi (Δ350-413) (average of 3) was determined as 2.28.
